Values after ≈ are worked out from the molar mass of the structure shown. Active and inactive are the calls of the source. The calls are words filed in the database; no cut-off is given here.

Data on 31 molecules can be found in ChEMBL document CHEMBL4312021, “Discovery of [1,2,4]-triazolo [1,5-a]pyrimidine-7(4H)-one derivatives as positive modulators of GABAA1 receptor with potent anticonvulsant activity and low toxicity” (Eur J Med Chem, 2020).

The subject of data set [1] is Mus musculus. Nature of the data set: Anticonvulsant activity in Kunming mouse assessed as reduction in MES-induced seizure at 30 to 300 mg/kg, ip measured after 30 mins. The class given is functional, organism-based.
The subject of data set [2] is Mus musculus. Nature of the data set: Anticonvulsant activity in Kunming mouse assessed as reduction in ScPTZ-induced seizure at 30 mg/kg, ip administered before 30 mins of ScPTZ stimulation. The class given is functional, organism-based.
For data set [3], the system named is Mus musculus. Nature of the data set: Anticonvulsant activity in Kunming mouse assessed as reduction in ScPTZ-induced seizure at 100 mg/kg, ip administered before 30 mins of ScPTZ stimulation. The class given is functional, organism-based.
In data set [4] the test system is Mus musculus. Description: Anticonvulsant activity in Kunming mouse assessed as reduction in ScPTZ-induced seizure at 300 mg/kg, ip administered before 30 mins of ScPTZ stimulation. The data set is classed as functional, organism-based.
Data set [5] concerns Cortical neurone. Nature of the data set: Antiepileptic actvity in C57BL/6 mouse Primary cortical neuron assessed as reduction in 4-AP-induced excitability measured for 8 mins by Fluo-8/AM staining based FLIPR assay. The class given is functional, cell-based. The conditions noted are these: C57BL/6, Cortical neurone.
A short description of data set [6]: Solubility of compound in water. The class given is physicochemical.
The nature of data set [7]: Solubility of compound in DMSO. The class given is physicochemical.
Data set [8] relates to Mus musculus. Nature of the data set: Anticonvulsant activity in ip dosed CF-1 mouse assessed as reduction in ScPTZ-induced seizure administered before 30 mins of ScPTZ stimulation. The data set is classed as functional. The conditions noted are these: CF-1, ip, 0.5 h.
Data set [9] in a line: Neurotoxicity in ip dosed Kunming mouse assessed as reduction in equilibrium measured after 30 mins by rotarod test. The data set is classed as toxicity, organism-based. The settings on record: in vivo. In general terms: Falling from the rotarod earlier than controls is read as motor impairment.
Data set [10] relates to Mus musculus. Nature of the data set: Anticonvulsant activity in ip dosed Kunming mouse assessed as reduction in ScPTZ-induced seizure administered before 30 mins of ScPTZ stimulation. The class given is functional. The settings on record: 0.5 h.
Data set [11] can be described thus: Protective index, ratio of TD50 for neurotoxicity in ip dosed Kunming mouse to ED50 for anticonvulsant activity in ip dosed Kunming mouse. The data set is classed as toxicity, organism-based. The conditions noted are these: in vivo, read-out: Ratio TD50/ED50.

As to `CCCCCc1nc2[nH]c(-c3ccccc3)cc(=O)n2n1`, the outcome in data set [1], in data set [2], in data set [3] and in data set [4] was inactive.

Usually IC50 stands for the concentration needed to halve the response being measured. Turning to `O=c1cc(Cc2ccc(Cl)cc2)[nH]c2nc(Cc3ccc(F)cc3)nn12`, the IC50 in data set [5] was 3650 nM. Further, the result in [1] and in data set [2] was inactive. For the same molecule, the result in data set [3] and in [4] was Active.

In the case of `CCCCc1nc2[nH]c(-c3ccc(Cl)cc3)cc(=O)n2n1`, the outcome in data set [1], in data set [2], in [3] and in data set [4] was inactive.

Take `O=c1cc(Cc2ccccc2)[nH]c2nc(Cc3ccccc3)nn12`: the outcome in [1], in data set [2], in data set [3] and in data set [4] was inactive.

For `CCCCCCc1nc2[nH]c(-c3ccccc3)cc(=O)n2n1`, the outcome in [1], in data set [2], in data set [3] and in [4] was inactive.

For the molecule `Cc1ccc(-c2nc3[nH]c(Cc4ccc(Cl)cc4)cc(=O)n3n2)cc1`, the outcome in [1], in data set [2] and in [3] was inactive. For the same molecule, the outcome in [4] was Active.

Regarding `Cc1ccc(-c2nc3[nH]c(Cc4ccc(F)cc4)cc(=O)n3n2)cc1`, the outcome in data set [1], in data set [2], in [3] and in data set [4] was inactive.

As to `O=c1cc(-c2ccc(Cl)cc2)[nH]c2nc(Cc3ccccc3)nn12`, the outcome in [1], in [2], in data set [3] and in [4] was inactive.

As a reminder, the solubility is how much of the substance goes into solution per volume. For the molecule `O=c1cc(-c2ccc(Cl)cc2)[nH]c2nc(-c3ccccc3)nn12`, the IC50 in data set [5] turned out to be 2350 nM. Also, the solubility in data set [6] stood at 14.3 µg/mL (≈ 0.0443 mM); in data set [7], 3000 µg/mL (≈ 9.29 mM).

Consider `O=c1cc(-c2ccccc2)[nH]c2nc(Cc3ccccc3)nn12`, for which, in data set [5], the IC50 is 1310 nM. For the same molecule, in data set [1], the result was inactive. The outcome in [2], in data set [3] and in [4] was Active.

On to `Cc1ccc(Cc2nc3[nH]c(Cc4ccccc4)cc(=O)n3n2)cc1`, for which the IC50 in [5] was 2470 nM. The result in [1] was inactive. Moreover, the result in data set [2], in data set [3] and in data set [4] was Active.

Take `CCCCCCCc1nc2[nH]c(-c3ccccc3)cc(=O)n2n1`: the result in [1], in data set [2], in data set [3] and in data set [4] was inactive.

Broadly, the ED50 is the dose at which the effect has come halfway, by size or by number of responders. Take `NC(=O)N1c2ccccc2C=Cc2ccccc21` [CARBAMAZEPINE]: the ED50 in data set [8] was above 100 mg/kg.

In general, TD50 refers to the 50% point of the dose-response relation for the toxic effect studied. In the case of `O=c1cc(-c2ccccc2)[nH]c2nc(Cc3ccc(Cl)cc3)nn12`, the TD50 at 0.5 h in [9] was found to be 211 mg/kg. For the same molecule, the IC50 in [5] is 1830 nM. In addition, the result in data set [1] was inactive. Moreover, the outcome in data set [2], in [3] and in data set [4] was Active. For the same molecule, the median effective dose (ED50) in data set [10] came out at 61.1 mg/kg. For the same molecule, in data set [11], the selectivity ratio is 3.45.

As to `CCCCCc1nc2[nH]c(-c3ccc(Cl)cc3)cc(=O)n2n1`, in data set [5], the IC50 stood at 8250 nM. The result in data set [1] and in data set [4] was inactive. For the same molecule, the result in [2] and in [3] was Active.

For `Cc1ccc(-c2nc3[nH]c(-c4ccccc4)cc(=O)n3n2)cc1`, in data set [5], the IC50 is 3210 nM. In addition, the values for the solubility in [6] and in data set [7] were 14.3 µg/mL (≈ 0.0473 mM) and 3000 µg/mL (≈ 9.92 mM), respectively.

Turning to `Cc1ccc(Cc2cc(=O)n3nc(-c4ccc(C)cc4)nc3[nH]2)cc1`, the outcome in data set [1], in [2], in data set [3] and in data set [4] was inactive.

For `Cc1ccc(Cc2cc(=O)n3nc(Cc4ccccc4)nc3[nH]2)cc1`, the result in data set [1], in data set [2], in data set [3] and in data set [4] was inactive.

For the molecule `CCCCc1nc2[nH]c(-c3ccccc3)cc(=O)n2n1`, the outcome in data set [1], in [2], in data set [3] and in data set [4] was inactive.

Turning to `CCCCCCCc1nc2[nH]c(-c3ccc(Cl)cc3)cc(=O)n2n1`, the outcome in [1], in [2], in [3] and in data set [4] was inactive.

With `Cc1ccc(Cc2cc(=O)n3nc(-c4ccccc4)nc3[nH]2)cc1`, the result in [1], in [2], in data set [3] and in data set [4] was inactive.

Consider `O=c1cc(Cc2ccccc2)[nH]c2nc(Cc3ccc(F)cc3)nn12`, for which the outcome in [1], in [2], in data set [3] and in data set [4] was inactive.

For the molecule `CCC1(c2ccccc2)C(=O)NC(=O)NC1=O` [PHENOBARBITAL], the ED50 in data set [8] worked out at 13.2 mg/kg.

For `O=c1cc(Cc2ccc(Cl)cc2)[nH]c2nc(Cc3ccccc3)nn12`, the outcome in data set [1], in [2] and in [3] was inactive. The result in data set [4] was Active.

Turning to `O=c1cc(Cc2ccccc2)[nH]c2nc(Cc3ccc(Cl)cc3)nn12`, the IC50 in data set [5] worked out at 4280 nM. The result in data set [1], in [2] and in [4] was inactive. The outcome in data set [3] was Active.

As for `CCCCCCc1nc2[nH]c(-c3ccc(Cl)cc3)cc(=O)n2n1`, the IC50 in data set [5] was found to be 8720 nM. Further, the outcome in data set [1] was inactive. The result in data set [2], in [3] and in data set [4] was Active.

As to `CCCC(CCC)C(=O)O` [VALPROIC ACID], the ED50 in [8] amounted to 149 mg/kg.

As to `O=C1NC(=O)C(c2ccccc2)(c2ccccc2)N1` [PHENYTOIN], the ED50 in [8] is above 300 mg/kg.

As for `Cc1ccc(Cc2nc3[nH]c(-c4ccc(Cl)cc4)cc(=O)n3n2)cc1`, in data set [5], the IC50 amounted to 5440 nM. In addition, the result in data set [1], in [2], in data set [3] and in [4] was inactive.

Consider `Cc1ccc(Cc2nc3[nH]c(-c4ccccc4)cc(=O)n3n2)cc1`, for which, in data set [9], the TD50 at 0.5 h was determined as 281 mg/kg. The IC50 in data set [5] came to 1150 nM. The result in [1] was inactive. Moreover, the result in [2], in [3] and in data set [4] was Active. In addition, the ED50 in data set [10] was 65.8 mg/kg. In addition, the selectivity ratio in data set [11] was 4.26.

With `O=c1cc(-c2ccccc2)[nH]c2nc(Cc3ccc(F)cc3)nn12`, the TD50 at 0.5 h in [9] came out at 261 mg/kg. The IC50 in [5] was 2520 nM. Moreover, the result in data set [1] was inactive. In addition, the outcome in data set [2], in data set [3] and in data set [4] was Active. In addition, in [10], the median effective dose (ED50) came to 71.6 mg/kg. In addition, the selectivity ratio in data set [11] worked out at 3.67.
